Experimental data: ChEMBL document CHEMBL1201862, “PubChem BioAssay data set” (2004)
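Briefly, cells in 96-well plates were exposed to five compound concentrations for 48 h, and endpoints were estimated by linear interpolation. GI50: concentration for 50% inhibition of growth.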 Calls of active or inactive are those of the source. Rule as the data show it: active = GI50 up to about 1.1 µM and inactive = higher.

Columns and labels:
Assay in all cases: inhibition of tumour cell growth, NCI panel, 48 h
DU-145 = test system: DU-145
SNB-75 = test system: SNB-75
IGROV-1 = test system: IGROV-1
SF-539 = test system: SF-539
CAKI-1 = test system: CAKI-1
U-251 = test system: U-251
OVCAR-8 = test system: OVCAR-8
HCT-15 = test system: HCT-15
MDA-MB-435 = test system: MDA-MB-435
Hs-578T = test system: Hs-578T
A498 = test system: A498
SR = test system: SR
A549 = test system: A549
UACC-257 = test system: UACC-257
NCI-H460 = test system: NCI-H460
MOLT-4 = test system: MOLT-4
LOX IMVI = test system: LOX IMVI
MDA-N = test system: MDA-N
CCRF-CEM = test system: CCRF-CEM
ACHN = test system: ACHN

| SMILES | GI50 (DU-145) | GI50 (SNB-75) | GI50 (IGROV-1) | GI50 (SF-539) | GI50 (CAKI-1) | GI50 (U-251) | GI50 (OVCAR-8) | GI50 (HCT-15) [µM] | GI50 (MDA-MB-435) | GI50 (Hs-578T) | GI50 (A498) | GI50 (SR) | GI50 (A549) | GI50 (UACC-257) | GI50 (NCI-H460) | GI50 (MOLT-4) | GI50 (LOX IMVI) | GI50 (MDA-N) | GI50 (CCRF-CEM) | GI50 (ACHN) |
| --- | --- | --- | --- | --- | --- | --- | --- | --- | --- | --- | --- | --- | --- | --- | --- | --- | --- | --- | --- | --- |
| CCOC(=O)/C(C#N)=C/c1ccc2c(c1)CC1(C2)Cc2cc(CC)c(C(C)O)cc2C1 (stereo not given) | 19.2 µM (inactive) | 8.38 µM (inactive) | 23 µM (inactive) | 9.82 µM (inactive) | 57.9 µM (inactive) | 6.35 µM (inactive) | 15 µM (inactive) | 5.24 | 2.14 µM (inactive) | 10 µM (inactive) | 25.8 µM (inactive) | 5.05 µM (inactive) | 44.1 µM (inactive) | 15.8 µM (inactive) | 23.2 µM (inactive) | 4.59 µM (inactive) | 6.95 µM (inactive) | 2.21 µM (inactive) | 4.61 µM (inactive) | 30.3 µM (inactive) |
| CC(=O)c1c2c(c3ccccc3c1O)O[C@@H]1OCC[C@H]21 | > 100 µM (inactive) | 11.5 µM (inactive) | > 100 µM (inactive) | > 100 µM (inactive) | > 100 µM (inactive) | > 100 µM (inactive) | > 100 µM (inactive) | > 100 | > 100 µM (inactive) | > 100 µM (inactive) | > 100 µM (inactive) | > 100 µM (inactive) | > 100 µM (inactive) | > 100 µM (inactive) | > 100 µM (inactive) | > 100 µM (inactive) | > 100 µM (inactive) | > 100 µM (inactive) | > 100 µM (inactive) | > 100 µM (inactive) |
| CCc1cccc(C(C)(C)C)c1NC(=S)N/C=C(/C#N)C(N)=O | > 100 µM (inactive) | 30.9 µM (inactive) | > 100 µM (inactive) | > 100 µM (inactive) | > 100 µM (inactive) | > 100 µM (inactive) | > 100 µM (inactive) | 62.4 | > 100 µM (inactive) | 83 µM (inactive) | > 100 µM (inactive) | > 10 µM (inactive) | > 100 µM (inactive) | > 100 µM (inactive) | > 100 µM (inactive) | > 100 µM (inactive) | > 100 µM (inactive) | > 100 µM (inactive) | > 100 µM (inactive) | > 100 µM (inactive) |
| FC(F)(F)c1ccc(C2ON=C(c3ccccc3)N2C23CC4CC(CC(C4)C2)C3)cc1 (stereo not given) | > 10 µM (inactive) | > 10 µM (inactive) | > 10 µM (inactive) | > 10 µM (inactive) | > 10 µM (inactive) | > 10 µM (inactive) | > 10 µM (inactive) | > 10 | > 10 µM (inactive) | > 10 µM (inactive) | > 10 µM (inactive) | > 10 µM (inactive) | > 10 µM (inactive) | > 10 µM (inactive) | > 10 µM (inactive) | > 10 µM (inactive) | > 10 µM (inactive) | > 10 µM (inactive) | > 10 µM (inactive) | > 10 µM (inactive) |
| O=C1C=CC(=O)c2c1ccc1c3ccccc3n(-c3ccccc3[N+](=O)[O-])c21 | 4.68 µM (inactive) | 13.9 µM (inactive) | 1.94 µM (inactive) | 22.5 µM (inactive) | 1.47 µM (inactive) | 4.59 µM (inactive) | 2.03 µM (inactive) | 2.96 | 2.26 µM (inactive) | 10.7 µM (inactive) | 20.7 µM (inactive) | 0.444 µM (active) | 21.7 µM (inactive) | 3.56 µM (inactive) | 9.82 µM (inactive) | 0.543 µM (active) | 1.93 µM (inactive) | 3.04 µM (inactive) | 0.181 µM (active) | 1.71 µM (inactive) |
| CCOC(=O)CCC(C(=O)OCC)n1nnc2cc(Nc3c(C)[n+]([O-])c4cc(F)c(OCC)cc4[n+]3[O-])ccc21 (stereo not given) | > 100 µM (inactive) | 37.4 µM (inactive) | > 100 µM (inactive) | 42.6 µM (inactive) | > 100 µM (inactive) | 30.7 µM (inactive) | 87.1 µM (inactive) | > 100 | > 100 µM (inactive) | 30.3 µM (inactive) | > 100 µM (inactive) | > 100 µM (inactive) | > 100 µM (inactive) | > 100 µM (inactive) | > 100 µM (inactive) | > 100 µM (inactive) | > 100 µM (inactive) | > 100 µM (inactive) | > 100 µM (inactive) | 52.6 µM (inactive) |
| COc1ccc(-c2nnc(CCCCCCCCc3nnc(-c4ccc(OC)cc4)n3N)n2N)cc1 | > 100 µM (inactive) | 37.9 µM (inactive) | > 96.6 µM (inactive) | > 76.2 µM (inactive) | > 100 µM (inactive) | > 56.9 µM (inactive) | > 31.6 µM (inactive) | > 100 | > 100 µM (inactive) | > 59 µM (inactive) | > 65.3 µM (inactive) | > 100 µM (inactive) | > 100 µM (inactive) | > 100 µM (inactive) | > 100 µM (inactive) | > 100 µM (inactive) | > 100 µM (inactive) | > 100 µM (inactive) | > 100 µM (inactive) | > 100 µM (inactive) |
| CC(=O)Nc1cc([As](=O)(O)O)ccc1O [ACETARSONE] | > 100 µM (inactive) | > 100 µM (inactive) | > 100 µM (inactive) | > 100 µM (inactive) | > 100 µM (inactive) | > 100 µM (inactive) | > 100 µM (inactive) | > 100 | > 100 µM (inactive) | > 100 µM (inactive) | > 100 µM (inactive) | > 100 µM (inactive) | > 100 µM (inactive) | > 100 µM (inactive) | > 100 µM (inactive) | > 100 µM (inactive) | > 100 µM (inactive) | > 100 µM (inactive) | > 100 µM (inactive) | > 100 µM (inactive) |
| CN(O)C(=O)Cc1ccc(OCc2cccc(Cl)c2)cc1 | > 100 µM (inactive) | > 100 µM (inactive) | > 100 µM (inactive) | > 100 µM (inactive) | > 100 µM (inactive) | > 100 µM (inactive) | > 100 µM (inactive) | > 100 | > 100 µM (inactive) | > 100 µM (inactive) | 1.23 µM (inactive) | > 100 µM (inactive) | > 100 µM (inactive) | > 100 µM (inactive) | > 100 µM (inactive) | > 100 µM (inactive) | > 100 µM (inactive) | > 100 µM (inactive) | > 100 µM (inactive) | > 100 µM (inactive) |
| Cc1[nH]n(-c2ncc(C#N)c(=O)[nH]2)c(=O)c1CCO | > 100 µM (inactive) | 16.4 µM (inactive) | > 100 µM (inactive) | > 100 µM (inactive) | > 100 µM (inactive) | > 100 µM (inactive) | > 100 µM (inactive) | > 100 | > 100 µM (inactive) | > 100 µM (inactive) | > 100 µM (inactive) | > 100 µM (inactive) | > 100 µM (inactive) | > 100 µM (inactive) | > 100 µM (inactive) | 75.5 µM (inactive) | > 100 µM (inactive) | > 100 µM (inactive) | > 100 µM (inactive) | > 100 µM (inactive) |
| CN(C)CCNC(=O)c1cccc2ccc(-c3ccc(O)cc3)nc12 | 2.33 µM (inactive) | 2.74 µM (inactive) | 2.47 µM (inactive) | 2.75 µM (inactive) | 1.19 µM (inactive) | 2.06 µM (inactive) | 1.38 µM (inactive) | 2.75 | 3.74 µM (inactive) | 2.66 µM (inactive) | 2.64 µM (inactive) | 2.47 µM (inactive) | 0.92 µM (active) | 2.61 µM (inactive) | 0.548 µM (active) | 0.238 µM (active) | 0.743 µM (active) | 2.39 µM (inactive) | 1.35 µM (inactive) | 1.37 µM (inactive) |
| CCN(CC)CCn1c2ccccc2c(=O)c2c(O)ccc(O)c21 | > 59.4 µM (inactive) | 22.3 µM (inactive) | 38.5 µM (inactive) | 33.8 µM (inactive) | 35.5 µM (inactive) | 42.1 µM (inactive) | 19.6 µM (inactive) | 33.8 | 18.6 µM (inactive) | 22.1 µM (inactive) | 74.3 µM (inactive) | 12.4 µM (inactive) | 83.9 µM (inactive) | 36.9 µM (inactive) | > 57.9 µM (inactive) | 18.5 µM (inactive) | 15.1 µM (inactive) | 18.7 µM (inactive) | 11 µM (inactive) | 33.7 µM (inactive) |
| O=C(OC(/C=C/c1ccccc1)P1(=O)N(Cc2ccccc2)[C@@H]2CCCC[C@H]2N1Cc1ccccc1)c1ccccc1 (stereo not given in full) | 6.75 µM (inactive) | 3.18 µM (inactive) | 2.9 µM (inactive) | 3.17 µM (inactive) | 3.56 µM (inactive) | 3.79 µM (inactive) | 3.29 µM (inactive) | 3.44 | 3.66 µM (inactive) | 6.67 µM (inactive) | 5.73 µM (inactive) | 2.81 µM (inactive) | 3.94 µM (inactive) | 3.07 µM (inactive) | 2.91 µM (inactive) | 2.15 µM (inactive) | 3.57 µM (inactive) | 3.8 µM (inactive) | 2.52 µM (inactive) | 3.81 µM (inactive) |
| Oc1ccccc1/C=N/Nc1nnc2c3ccccc3c3ccccc3c2n1 | > 100 µM (inactive) | 20.8 µM (inactive) | 39.9 µM (inactive) | > 100 µM (inactive) | > 100 µM (inactive) | > 100 µM (inactive) | > 100 µM (inactive) | 73.6 | 28.1 µM (inactive) | > 100 µM (inactive) | > 100 µM (inactive) | 52.6 µM (inactive) | > 100 µM (inactive) | 25.2 µM (inactive) | 41.8 µM (inactive) | > 100 µM (inactive) | 84.3 µM (inactive) | 29.9 µM (inactive) | > 100 µM (inactive) | > 100 µM (inactive) |
